Reference: ChEMBL document CHEMBL1154896, “Antineoplastic agents. 573. isolation and structure of papilistatin from the papilionid butterfly Byasa polyeuctes termessa” (2010)
In brackets after ≈: the same amount, converted by molar mass.

Legend:
Format in all cases: functional
Streptococcus pneumoniae = assay: Antibacterial activity against Streptococcus pneumoniae ATCC 6303
KM-20L2 = assay: Cytotoxicity against human KM20L2 cells after 48 hrs by SRB assay; details: KM-20L2, 48 h
BXPC-3 = assay: Cytotoxicity against human BxPC3 cells after 48 hrs by SRB assay; details: BXPC-3, 48 h
Micrococcus luteus = assay: Antibacterial activity against Micrococcus luteus Presque Isle 456
Staphylococcus aureus = assay: Antibacterial activity against Staphylococcus aureus ATCC 29213
Enterococcus faecalis = assay: Antibacterial activity against Enterococcus faecalis ATCC 29212
Neisseria gonorrhoeae = assay: Antibacterial activity against Neisseria gonorrheae ATCC 49226

MIC (Streptococcus pneumoniae): 32 µg/mL (≈ 94 µM) | MIC (Micrococcus luteus): 16 µg/mL (≈ 47 µM) | MIC (Staphylococcus aureus): 64 µg/mL (≈ 188 µM) | MIC (Enterococcus faecalis): 16 µg/mL (≈ 47 µM) | MIC (Neisseria gonorrhoeae): 8 µg/mL (≈ 23.5 µM)
Compound: COc1cccc2c1cc(C(=O)O)c1c(C(=O)O)cc3c(c12)OCO3 [PAPILISTATIN]
GI50 (KM-20L2): 0.096 µg/mL (≈ 0.282 µM) | GI50 (BXPC-3): 0.093 µg/mL (≈ 0.273 µM)
